From ChEMBL document CHEMBL1909570, “Synthesis and antibacterial activity of N4-mono alkyl derivatives of novel glycopeptide LYV07ww01” (2011)
Converted amounts (≈) assume the structure as drawn.

What was measured:
Assay type in all cases: functional
Staphylococcus aureus [1] = assay: microbe, parasite or virus in culture; details: ATCC 25923
Description: Antibacterial activity against methicillin-sensitive Staphylococcus aureus ATCC 25923 by CLSI agar microdilution method

Streptococcus pneumoniae [2] = assay: Antibacterial activity against penicillin-intermediate Streptococcus pneumoniae ATCC 49619 by CLSI broth microdilution method
[3] = tested on: Staphylococcus epidermidis; assay: Antibacterial activity against Staphylococcus epidermidis 26069 by CLSI agar microdilution method
Enterococcus faecalis [4] = assay: microbe, parasite or virus in culture; details: ATCC 51299
Enterococcus faecium [5] = assay: Antibacterial activity against vancomycin-sensitive Enterococcus faecium ATCC 35667 by CLSI agar microdilution method
Streptococcus pneumoniae [6] = assay: Antibacterial activity against Streptococcus pneumoniae 31002 by CLSI agar microdilution method
Staphylococcus = assay: Antibacterial activity against Staphylococcus albus 26101 by CLSI agar microdilution method
Streptococcus = assay: Antibacterial activity against Streptococcus gamma 32206 by CLSI agar microdilution method
Staphylococcus aureus [7] = assay: Antibacterial activity against Staphylococcus aureus 26003 by CLSI agar microdilution method
Enterococcus faecalis [8] = assay: Antibacterial activity against vancomycin-resistant Enterococcus faecalis ATCC 51299 by CLSI agar microdilution method relative to vancomycin
Streptococcus pneumoniae [9] = assay: Antibacterial activity against penicillin-resistant Streptococcus pneumoniae MSPN 0003 by CLSI broth microdilution method
Enterococcus faecium [10] = assay: Antibacterial activity against Enterococcus faecium 32220 by CLSI agar microdilution method
Enterococcus faecalis [11] = assay: microbe, parasite or virus in culture; details: ATCC 29212
Description: Antibacterial activity against vancomycin-sensitive Enterococcus faecalis ATCC 29212 by CLSI agar microdilution method

Staphylococcus aureus [12] = assay: microbe, parasite or virus in culture; details: ATCC 33591
Description: Antibacterial activity against methicillin-resistant Staphylococcus aureus ATCC 33591 by CLSI agar microdilution method

Enterococcus faecium [13] = assay: Antibacterial activity against vancomycin-resistant Enterococcus faecium MEFA 0039 by CLSI agar microdilution method
Enterococcus faecium [14] = assay: Antibacterial activity against vancomycin-resistant Enterococcus faecium MEFA 0039 by CLSI agar microdilution method relative to vancomycin
Enterococcus faecium [15] = assay: Antibacterial activity against vancomycin-sensitive Enterococcus faecium ATCC 35667 by CLSI agar microdilution method relative to LYV07ww01

Structure (SMILES): CN[C@H](CC(C)C)C(=O)N[C@H]1C(=O)N[C@@H](CC(N)=O)C(=O)N[C@H]2C(=O)N[C@H]3C(=O)N[C@H](C(=O)N[C@@H](C(=O)O)c4cc(O)cc(O)c4-c4cc3ccc4O)[C@H](O[C@H]3C[C@](C)(N)[C@H](O)[C@H](C)O3)c3ccc(c(Cl)c3)Oc3cc2cc(c3O[C@@H]2O[C@H](CO)[C@@H](O)[C@H](O)[C@H]2O[C@H]2C[C@](C)(NCc3ccc(OC)cc3)[C@H](O)[C@H](C)O2)Oc2ccc(cc2Cl)[C@H]1O
- MIC (Staphylococcus aureus [1]): 1 µg/mL (≈ 0.584 µM)
- MIC (Streptococcus pneumoniae [2]): 0.063 µg/mL (≈ 0.0368 µM)
- MIC [3]: 3.13 µg/mL (≈ 1.83 µM)
- MIC (Enterococcus faecalis [4]): 0.5 µg/mL (≈ 0.292 µM)
- MIC (Enterococcus faecium [5]): 0.125 µg/mL (≈ 0.073 µM)
- MIC (Streptococcus pneumoniae [6]): 0.78 µg/mL (≈ 0.455 µM)
- MIC (Staphylococcus): 1.56 µg/mL (≈ 0.911 µM)
- MIC (Streptococcus): 1.56 µg/mL (≈ 0.911 µM)
- MIC (Staphylococcus aureus [7]): 0.78 µg/mL (≈ 0.455 µM)
- fold change (FC) (Enterococcus faecalis [8]): 4
- MIC (Streptococcus pneumoniae [9]): 0.125 µg/mL (≈ 0.073 µM)
- MIC (Enterococcus faecium [10]): 1.56 µg/mL (≈ 0.911 µM)
- MIC (Enterococcus faecalis [11]): 0.5 µg/mL (≈ 0.292 µM)
- MIC (Staphylococcus aureus [12]): 0.5 µg/mL (≈ 0.292 µM)
- MIC (Enterococcus faecium [13]): 4 µg/mL (≈ 2.34 µM)
- fold change (FC) (Enterococcus faecium [14]): 4

Structure (SMILES): CN[C@H](CC(C)C)C(=O)N[C@H]1C(=O)N[C@@H](CC(N)=O)C(=O)N[C@H]2C(=O)N[C@H]3C(=O)N[C@H](C(=O)N[C@@H](C(=O)O)c4cc(O)cc(O)c4-c4cc3ccc4O)[C@H](O[C@H]3C[C@](C)(N)[C@H](O)[C@H](C)O3)c3ccc(c(Cl)c3)Oc3cc2cc(c3O[C@@H]2O[C@H](CO)[C@@H](O)[C@H](O)[C@H]2O[C@H]2C[C@](C)(N)[C@H](O)[C@H](C)O2)Oc2ccc(cc2Cl)[C@H]1O
- MIC (Staphylococcus aureus [1]): 0.25 µg/mL (≈ 0.157 µM)
- MIC (Streptococcus pneumoniae [2]): 0.063 µg/mL (≈ 0.0396 µM)
- MIC [3]: > 25 µg/mL
- MIC (Enterococcus faecalis [4]): 0.5 µg/mL (≈ 0.314 µM)
- MIC (Enterococcus faecium [5]): 0.125 µg/mL (≈ 0.0785 µM)
- MIC (Streptococcus pneumoniae [6]): 0.098 µg/mL (≈ 0.0615 µM)
- MIC (Staphylococcus): 0.78 µg/mL (≈ 0.49 µM)
- MIC (Streptococcus): 0.78 µg/mL (≈ 0.49 µM)
- MIC (Staphylococcus aureus [7]): 0.39 µg/mL (≈ 0.245 µM)
- MIC (Streptococcus pneumoniae [9]): 0.125 µg/mL (≈ 0.0785 µM)
- MIC (Enterococcus faecium [10]): 3.13 µg/mL (≈ 1.97 µM)
- MIC (Enterococcus faecalis [11]): 0.25 µg/mL (≈ 0.157 µM)
- MIC (Staphylococcus aureus [12]): 0.125 µg/mL (≈ 0.0785 µM)
- MIC (Enterococcus faecium [13]): 8 µg/mL (≈ 5.02 µM)

Structure (SMILES): CN[C@H](CC(C)C)C(=O)N[C@H]1C(=O)N[C@@H](CC(N)=O)C(=O)N[C@H]2C(=O)N[C@H]3C(=O)N[C@H](C(=O)N[C@@H](C(=O)O)c4cc(O)cc(O)c4-c4cc3ccc4O)[C@H](O[C@H]3C[C@](C)(N)[C@H](O)[C@H](C)O3)c3ccc(c(Cl)c3)Oc3cc2cc(c3O[C@@H]2O[C@H](CO)[C@@H](O)[C@H](O)[C@H]2O[C@H]2C[C@](C)(NCc3cccc(Br)c3)[C@H](O)[C@H](C)O2)Oc2ccc(cc2Cl)[C@H]1O
- MIC (Staphylococcus aureus [1]): 1 µg/mL (≈ 0.568 µM)
- MIC (Streptococcus pneumoniae [2]): ≤ 0.031 µg/mL
- MIC [3]: > 25 µg/mL
- MIC (Enterococcus faecalis [4]): 0.5 µg/mL (≈ 0.284 µM)
- MIC (Enterococcus faecium [5]): ≤ 0.031 µg/mL
- MIC (Streptococcus pneumoniae [6]): 0.78 µg/mL (≈ 0.443 µM)
- MIC (Staphylococcus): 0.78 µg/mL (≈ 0.443 µM)
- MIC (Streptococcus): 3.13 µg/mL (≈ 1.78 µM)
- MIC (Staphylococcus aureus [7]): 0.78 µg/mL (≈ 0.443 µM)
- fold change (FC) (Enterococcus faecalis [8]): 4
- MIC (Streptococcus pneumoniae [9]): ≤ 0.031 µg/mL
- fold change (FC) (Enterococcus faecium [15]): 4
- MIC (Enterococcus faecium [10]): 0.78 µg/mL (≈ 0.443 µM)
- MIC (Enterococcus faecalis [11]): 0.25 µg/mL (≈ 0.142 µM)
- MIC (Staphylococcus aureus [12]): 0.5 µg/mL (≈ 0.284 µM)
- MIC (Enterococcus faecium [13]): 2 µg/mL (≈ 1.14 µM)

Structure (SMILES): CN[C@H](CC(C)C)C(=O)N[C@H]1C(=O)N[C@@H](CC(N)=O)C(=O)N[C@H]2C(=O)N[C@H]3C(=O)N[C@H](C(=O)N[C@@H](C(=O)O)c4cc(O)cc(O)c4-c4cc3ccc4O)[C@H](O[C@H]3C[C@](C)(N)[C@H](O)[C@H](C)O3)c3ccc(c(Cl)c3)Oc3cc2cc(c3O[C@@H]2O[C@H](CO)[C@@H](O)[C@H](O)[C@H]2O[C@H]2C[C@](C)(NCc3ccccc3Br)[C@H](O)[C@H](C)O2)Oc2ccc(cc2Cl)[C@H]1O
- MIC (Staphylococcus aureus [1]): 1 µg/mL (≈ 0.568 µM)
- MIC (Streptococcus pneumoniae [2]): ≤ 0.031 µg/mL
- MIC [3]: > 25 µg/mL
- MIC (Enterococcus faecalis [4]): 0.5 µg/mL (≈ 0.284 µM)
- MIC (Enterococcus faecium [5]): 0.125 µg/mL (≈ 0.071 µM)
- MIC (Streptococcus pneumoniae [6]): 0.195 µg/mL (≈ 0.111 µM)
- MIC (Staphylococcus): 1.56 µg/mL (≈ 0.886 µM)
- MIC (Streptococcus): 0.39 µg/mL (≈ 0.221 µM)
- MIC (Staphylococcus aureus [7]): 1.56 µg/mL (≈ 0.886 µM)
- fold change (FC) (Enterococcus faecalis [8]): 4
- MIC (Streptococcus pneumoniae [9]): 0.063 µg/mL (≈ 0.0358 µM)
- MIC (Enterococcus faecium [10]): 1.56 µg/mL (≈ 0.886 µM)
- MIC (Enterococcus faecalis [11]): 0.25 µg/mL (≈ 0.142 µM)
- MIC (Staphylococcus aureus [12]): 0.5 µg/mL (≈ 0.284 µM)
- MIC (Enterococcus faecium [13]): 4 µg/mL (≈ 2.27 µM)
- fold change (FC) (Enterococcus faecium [14]): 4
